Results as given in patent US20260191853A1, “METHOD OF TREATING DRUG-INDUCED BRADYARRHYTHMIA” (OSAKA UNIVERSITY, priority 2022, published 2026).

Tests used:
Format in all cases: in vivo
[1] = tested on: Hartley guinea pigs; assay: Effect on fingolimod-induced decrease in blood lymphocytes in guinea pig; details: compound (I) 10 or 30 mg/kg oral gavage 30 min before fingolimod hydrochloride 0.1 mg/kg oral; 5 and 24 hours; FIG. 7
Description: Hartley guinea pigs (8 weeks old, male, available from Japan SLC, Inc.) were fasted for about 16 hours, and then a solvent or compound (I) (free form) was administered by oral gavage to each animal at a dose of 10 or 30 mg/kg (volume: 5 mL/kg). The solvent used was 0.5 w/v % methyl cellulose 400 solution (available from FUJIFILM Wako Pure Chemical Corporation). Thirty minutes after the administration, a solvent or fingolimod hydrochloride was administered by oral gavage to the animal at a dose of 0.1 mg/kg (volume: 5 mL/kg). The solvent used was saline (available from Otsuka Pharmaceutical Factory, Inc.). Blood was collected from the jugular vein, the subclavian vein, or the abdominal vena cava before administration of compound (I) and 5 and 24 hours after administration of fingolimod hydrochloride. Blood cell components were analyzed with a multi-item automatic blood cell counter (XN-1000, available from Sysmex Corporation). The plasma was collected by centrifuging the blood and cryopreserved at about −20° C. After thawing of the plasma, plasma drug concentrations were measured using LC/MS/MS after deproteinization with acetonitrile.
In FIG. 7, the measurements are shown as mean±standard error, and (I) denotes compound (I).

[2] = tested on: Wistar rats; assay: Therapeutic effect on propranolol-induced bradyarrhythmia in conscious rat (telemetry); details: compound (I) dihydrochloride 1 mg/kg i.p. about 30 min after propranolol 1 mg/kg i.p.; awake rats; FIG. 8
Source text: Wistar rats (10 weeks old, male, available from Kiwa Laboratory Animals Co., Ltd.) were anesthetized by inhalation of Sevofrane (available from Maruishi Pharmaceutical Co., Ltd.) and held on an operating table. An implantable telemetry transmitter ETA-F10 (DSI) was placed subcutaneously in each rat, and one lead was fixed to each of the upper right chest and the left lower chest. After being fully awakened, the rat was placed in a cage on the receiving board, and a body surface electrocardiogram was measured with a high-sensitivity amplifier. Electrocardiogram data were acquired and analyzed with LabChart Pro & LabChart module (available from Bio Research Center Co., Ltd.). After stabilization of the heart rate, propranolol (Inderal Injection, available from AstraZeneca K.K.) was administered by intraperitoneal injection at a dose of 1 mg/kg. After the elapse of about 30 minutes, the stabilization of the heart rate was determined, and then saline or compound (I) dihydrochloride was administered by intraperitoneal injection at a dose of 1 mg/kg. Thirty minutes after the administration, the heart rate in a stable state was measured for evaluation. The solvent used was saline (available from Otsuka Pharmaceutical Factory, Inc.). […]

[3] = tested on: Hartley guinea pigs; assay: Termination effect on fingolimod-induced bradyarrhythmia in isoflurane-anesthetized guinea pig model
Source text: Hartley guinea pigs (7 to 10 weeks old, male, available from Japan SLC, Inc.) were subjected to anesthetic induction by inhalation of isoflurane (available from Pfizer Japan Inc.), and each animal was held on an operating table having a heater function. The trachea was incised, and a tracheal cannula (KN-375, available from Natsume Seisakusho Co., Ltd.) was inserted. The tracheal cannula was connected to a ventilator (SN-480-7, available from Shinano Seisakusho Co., Ltd.), and artificial respiration was controlled by supplying 100% oxygen at a volume of 10 mL and a ventilation rate of 60 times/minute. Isoflurane (available from Pfizer Japan Inc.) anesthesia (about 1 to 4%, carrier gas: 100% oxygen) was used for maintenance of anesthesia. A catheter (BD intramedic polyethylene tubing PE50, available from Becton, Dickinson and Company) charged with 50 units/mL heparin (available from AY PHARMACEUTICALS CO., LTD.) was inserted into each of the carotid artery and the jugular vein and placed in the blood vessel. Systemic blood pressure was measured with a high-sensitivity DC amplifier (AD-611J, available from NIHON KOHDEN CORPORATION) via the catheter placed in the carotid artery. Electrodes were attached to the body surface, and a body surface electrocardiogram was measured with a high-sensitivity amplifier (AB-611J, available from NIHON KOHDEN CORPORATION). Blood pressure and electrocardiogram data were acquired and analyzed with PowerLab/Labchart system (available from ADInstruments). After stabilization of each parameter, fingolimod hydrochloride (available from Nissan Chemical Corporation) was continuously administered intravenously at 0.1 mg/kg for 10 minutes via the catheter placed in the jugular vein, followed by observation of the presence or absence of atrioventricular block. After confirmation that atrioventricular block continued for 10 minutes from the onset thereof, a solvent or compound (I) dihydrochloride was continuously administered intravenously at 0.1 mg/kg for 30 minutes, and the effect of terminating atrioventricular block was observed during the intravenous administration. The solvent used was saline (available from Otsuka Pharmaceutical Factory, Inc.). Data were recorded and blood was collected 10, 20, and 30 minutes after initiation of administration of compound (I) dihydrochloride and at the time of termination of atrioventricular block. The observation was terminated 30 minutes after initiation of the administration, and the animal was euthanized by exsanguination or intravenous administration of a large amount of saturated potassium chloride solution under isoflurane anesthesia. Data were analyzed for the presence or absence of the termination, the time required for the termination, and the plasma concentration of compound (I) at the time of termination. The plasma was collected by centrifuging the blood and cryopreserved at about −20° C. After thawing of the plasma, plasma drug concentrations were measured using LC/MS/MS after deproteinization with acetonitrile.
In Table 1, the measurements are shown as mean±standard error.

[4] = tested on: genetically modified animal model; assay: Sinus arrest and atrioventricular block in a genetically modified animal model

For `Cc1cc(CO)nc2cc3c(cc12)OC(C)(C)[C@H](O)[C@H]3NCCc1ccccc1` [Compound (I), (3R,4S)-7-Hydroxymethyl-2,2,9-trimethyl-4-(phenethylamino)-3,4-dihydro-2H-pyrano[2,3-g]quinoline-3-ol], the “effect on the peripheral blood lymphocyte decreasing action of fingolimod” value [1] was “does not inhibit”, the “propranolol-induced bradycardia (heart rate)” value [2] was “improved bradycardia” and the “fingolimod-induced bradyarrhythmia (atrioventricular block: A-V block) termination” value ([3]; compound (I) dihydrochloride 0.1 mg/kg continuous i.v.) was “completely terminated”. For the same compound, the “Number of cases where atrioventricular block was terminated” value ([3]; fingolimod-induced block, compound (I) dihydrochloride 0.1 mg/kg continuous i.v. for 30 minutes) was 5/5, the “Time required for the termination of atrioventricular block” value ([3]; fingolimod-induced block, compound (I) dihydrochloride 0.1 mg/kg continuous i.v. for 30 minutes, mean±standard error) was 750 ± 43 s and the “Compound (I) concentration at the time of termination” value ([3]; plasma, fingolimod-induced block, 0.1 mg/kg continuous i.v. for 30 minutes, mean±standard error) was 30.9 ± 1.9 ng/mL. The “efficacy for sinus arrest and atrioventricular block” value [4] was “effective”.
